Paper PMC12796447, “Cran1, member of a new class of OLD family ATPases, functions in cell cycle progression in an archaeon” (EMBO Reports, 2025)

Biological target: T1, Cran1 (Cell cycle-related ATPase and nickase 1) (Saccharolobus islandicus, UniProt F0NG35, E246A)
T1 construct: gene SiRe_0086; full-length, C-terminal His-tag; expressed in Sa. islandicus (ATPase assay) or E. coli BL21(DE3)-RIL; monomer, 55 kDa by gel filtration
Experiment: malachite green phosphate release assay
Format: biochemical
Settings: 1 mM ATP, 0.2 uM protein, 5 mM MgCl2, 25 mM Tris-HCl pH 7.4, 100 mM NaCl; 70 C

T1 sequence (F0NG35 entry or part of it E246A): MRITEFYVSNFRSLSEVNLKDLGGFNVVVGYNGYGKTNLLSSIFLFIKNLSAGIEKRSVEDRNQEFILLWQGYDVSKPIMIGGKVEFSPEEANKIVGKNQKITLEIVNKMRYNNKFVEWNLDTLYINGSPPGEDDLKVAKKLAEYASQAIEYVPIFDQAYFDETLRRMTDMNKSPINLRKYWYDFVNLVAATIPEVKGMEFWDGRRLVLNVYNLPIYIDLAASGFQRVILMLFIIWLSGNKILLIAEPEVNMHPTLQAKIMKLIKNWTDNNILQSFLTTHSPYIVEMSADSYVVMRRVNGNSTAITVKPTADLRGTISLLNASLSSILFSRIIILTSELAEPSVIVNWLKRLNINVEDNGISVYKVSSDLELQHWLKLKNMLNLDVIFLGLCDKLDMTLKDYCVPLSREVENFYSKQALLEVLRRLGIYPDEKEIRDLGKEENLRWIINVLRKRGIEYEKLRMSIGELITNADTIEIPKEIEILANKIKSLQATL

Nc1ncnc2c1ncn2[C@@H]1O[C@H](COP(=O)(O)OP(=O)(O)OP(=O)(O)O)[C@@H](O)[C@H]1O [ATP]
malachite green phosphate release assay: substitution of either of the two residues with alanine had no effect both in vitro
